Test results published in patent US20200024278A1, “COMPOSITION COMPRISING ANTIBIOTIC COMPOUND AND AN HETEROCYCLIC COMPOUND AND THEIR USE IN PREVENTING OR TREATING BACTERIAL INFECTIONS” (MUTABILIS, priority 2016, published 2020).

Legend:
Test in all cases: MIC, broth microdilution (CLSI), substance alone or ATB combined with compound at 4 or 8 μg/mL
ECO 190317 = format: cell-based, E. coli; conditions: ECO 190317; for MIC ATB combined with Example: Example @8 μg/ml
In short: (§1)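 CLSI broth microdilution in cation-adjusted Mueller-Hinton broth, 5·10^5 CFU/mL log-phase inoculum, 16-20 h at 35 °C in ambient air. Fosfomycin assays supplemented with 25 μg/ml glucose-6-phosphate.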

ECO UFR39 = format: cell-based, E. coli; conditions: ECO UFR39; for MIC ATB combined with Example: Example @8 μg/ml; for MIC ATB combined with Example compound: compound @8 μg/ml
In short: as §1

KPN 6299 = format: cell-based, K. pneumoniae; conditions: for MIC ATB combined with Example: Example @8 μg/ml
In short: as §1

KPN BAA-1898 = format: cell-based, K. pneumoniae; conditions: KPN BAA-1898; for MIC ATB combined with Example: Example @8 μg/ml
In short: as §1

KPN UFR42 = format: cell-based, K. pneumoniae; conditions: KPN UFR42; for MIC ATB combined with Example: Example @8 μg/ml; for MIC ATB combined with Example compound: compound @8 μg/ml
In short: as §1

ECL P99 = format: cell-based, E. cloacae; conditions: ECL P99; for MIC ATB combined with Example: Example @8 μg/ml
In short: as §1

PAE 105250 = format: cell-based, P. aeruginosa; conditions: PAE 105250; for MIC ATB combined with Example: Example @8 μg/ml; for MIC ATB combined with Example compound: compound @8 μg/ml
In short: as §1

PAE UFR48 = format: cell-based, P. aeruginosa; conditions: PAE UFR48; for MIC ATB combined with Example: Example @8 μg/ml; for MIC ATB combined with Example compound: compound @8 μg/ml
In short: as §1

PAE UFR90 = format: cell-based, P. aeruginosa; conditions: PAE UFR90; for MIC ATB combined with Example: Example @8 μg/ml; for MIC ATB combined with Example compound: compound @8 μg/ml
In short: as §1

SAU 29213 = format: cell-based, S. aureus; conditions: for MIC ATB combined with Example / MIC ATB combined with Example compound: SAU 29213; for MIC ATB combined with Example: Example @8 μg/ml; for MIC ATB combined with Example compound: compound @8 μg/ml
In short: as §1

SPN 49619 = format: cell-based, S. pneumoniae; conditions: SPN 49619; for MIC ATB combined with Example: Example @8 μg/ml; for MIC ATB combined with Example compound: compound @8 μg/ml
In short: as §1

ABA 107292 = format: cell-based, A. baumannii; conditions: Acinetobacter baumannii, substance alone, read-out: MIC
In short: as §1

ABA 19606 = format: cell-based, A. baumannii; conditions: Acinetobacter baumannii, substance alone, read-out: MIC
In short: as §1

[1] = Escherichia coli, substance alone, read-out: MIC
[2] = Pseudomonas aeruginosa, substance alone, read-out: MIC

## O=C1N2CC(n3cccn3)=CC(C2)N1OS(=O)(=O)[O-].[Na+] (stereo not drawn) [Example 11, sodium (7-oxo-3-pyrazol-1-yl-1,6-diazabicyclo[3.2.1]oct-3-en-6-yl) sulfate]
ECO 190317; ATB ATM
  MIC ATB combined with Example: <0.031 µg/mL
ECO 190317; ATB FEP
  MIC ATB combined with Example: <0.031 µg/mL
ECO 190317; ATB FOS
  MIC ATB combined with Example: <0.125 µg/mL
ECO 190317; ATB MEM
  MIC ATB combined with Example: <0.031 µg/mL
ECO 190317; ATB PIP
  MIC ATB combined with Example: <0.031 µg/mL
ECO 190317; [1]
  MIC: 1 µg/mL
ECO 190317; MIC of CIP, compound @8 μg/ml
  MIC ATB combined with Example compound: <0.031 µg/mL
ECO UFR39; ATB ATM
  MIC ATB combined with Example: <0.031 µg/mL
ECO UFR39; ATB FEP
  MIC ATB combined with Example: <0.031 µg/mL
ECO UFR39; ATB FOS
  MIC ATB combined with Example: <0.125 µg/mL
ECO UFR39; ATB MEM
  MIC ATB combined with Example: <0.031 µg/mL
ECO UFR39; ATB PIP
  MIC ATB combined with Example: <0.031 µg/mL
ECO UFR39; [1]
  MIC: 4 µg/mL
ECO UFR39; MIC of CIP
  MIC ATB combined with Example compound: <0.031 µg/mL
ECO UFR39; MIC of CPO
  MIC ATB combined with Example compound: <0.031 µg/mL
KPN 6299; ATB ATM
  MIC ATB combined with Example: <0.031 µg/mL
KPN 6299; ATB FEP
  MIC ATB combined with Example: <0.031 µg/mL
KPN 6299; ATB FOS
  MIC ATB combined with Example: <0.125 µg/mL
KPN 6299; ATB MEM
  MIC ATB combined with Example: <0.031 µg/mL
KPN 6299; ATB PIP
  MIC ATB combined with Example: <=0.031 μg/mL
KPN 6299; MIC of CIP, compound @8 μg/ml
  MIC ATB combined with Example compound: <=0.031 μg/mL
KPN BAA-1898; ATB ATM
  MIC ATB combined with Example: <0.031 µg/mL
KPN BAA-1898; ATB FEP
  MIC ATB combined with Example: <0.031 µg/mL
KPN BAA-1898; ATB FOS
  MIC ATB combined with Example: <=0.125 μg/mL
KPN BAA-1898; ATB MEM
  MIC ATB combined with Example: <=0.031 μg/mL
KPN BAA-1898; ATB PIP
  MIC ATB combined with Example: <0.031 µg/mL
KPN BAA-1898; Klebsiella pneumoniae, BAA1898, substance alone, read-out: MIC
  MIC: 8 µg/mL
KPN BAA-1898; MIC of CIP, compound @8 μg/ml
  MIC ATB combined with Example compound: <0.031 µg/mL
KPN UFR42; ATB ATM
  MIC ATB combined with Example: <0.031 µg/mL
KPN UFR42; ATB FEP
  MIC ATB combined with Example: <0.031 µg/mL
KPN UFR42; ATB FOS
  MIC ATB combined with Example: <0.125 µg/mL
KPN UFR42; ATB MEM
  MIC ATB combined with Example: 0.5 µg/mL
KPN UFR42; ATB PIP
  MIC ATB combined with Example: >32 µg/mL
KPN UFR42; Klebsiella pneumoniae, substance alone, read-out: MIC
  MIC: 8 µg/mL
KPN UFR42; MIC of CIP
  MIC ATB combined with Example compound: 32 µg/mL
KPN UFR42; MIC of CPO
  MIC ATB combined with Example compound: <0.031 µg/mL
ECL P99; ATB ATM
  MIC ATB combined with Example: <0.031 µg/mL
ECL P99; ATB FEP
  MIC ATB combined with Example: <0.031 µg/mL
ECL P99; ATB FOS
  MIC ATB combined with Example: <0.125 µg/mL
ECL P99; ATB MEM
  MIC ATB combined with Example: <0.031 µg/mL
ECL P99; ATB PIP
  MIC ATB combined with Example: <0.031 µg/mL
ECL P99; Enterobacter cloacae, substance alone, read-out: MIC
  MIC: 4 µg/mL
ECL P99; MIC of CIP, compound @8 μg/ml
  MIC ATB combined with Example compound: <0.031 µg/mL
PAE 105250; ATB ATM
  MIC ATB combined with Example: 16 µg/mL
PAE 105250; ATB FEP
  MIC ATB combined with Example: 8 µg/mL
PAE 105250; ATB FOS
  MIC ATB combined with Example: >128 µg/mL
PAE 105250; ATB MEM
  MIC ATB combined with Example: 2 µg/mL
PAE 105250; ATB PIP
  MIC ATB combined with Example: 32 µg/mL
PAE 105250; MIC of CIP
  MIC ATB combined with Example compound: 0.125 µg/mL
PAE 105250; MIC of CPO
  MIC ATB combined with Example compound: 16 µg/mL
PAE 105250; [2]
  MIC: > 32 µg/mL
PAE UFR48; ATB ATM
  MIC ATB combined with Example: 8 µg/mL
PAE UFR48; ATB FEP
  MIC ATB combined with Example: 32 µg/mL
PAE UFR48; ATB FOS
  MIC ATB combined with Example: 32 µg/mL
PAE UFR48; ATB MEM
  MIC ATB combined with Example: 0.25 µg/mL
PAE UFR48; ATB PIP
  MIC ATB combined with Example: 16 µg/mL
PAE UFR48; MIC of CIP
  MIC ATB combined with Example compound: 4 µg/mL
PAE UFR48; MIC of CPO
  MIC ATB combined with Example compound: >32 µg/mL
PAE UFR48; [2]
  MIC: > 32 µg/mL
PAE UFR90; ATB ATM
  MIC ATB combined with Example: 4 µg/mL
PAE UFR90; ATB FEP
  MIC ATB combined with Example: 2 µg/mL
PAE UFR90; ATB FOS
  MIC ATB combined with Example: 8 µg/mL
PAE UFR90; ATB MEM
  MIC ATB combined with Example: 1 µg/mL
PAE UFR90; ATB PIP
  MIC ATB combined with Example: 16 µg/mL
PAE UFR90; MIC of CIP
  MIC ATB combined with Example compound: 1 µg/mL
PAE UFR90; MIC of CPO
  MIC ATB combined with Example compound: 2 µg/mL
PAE UFR90; [2]
  MIC: > 32 µg/mL
SAU 29213; ATB ATM
  MIC ATB combined with Example: >32 µg/mL
SAU 29213; ATB FEP
  MIC ATB combined with Example: 0.5 µg/mL
SAU 29213; ATB FOS
  MIC ATB combined with Example: <=0.125 μg/mL
SAU 29213; ATB MEM
  MIC ATB combined with Example: <=0.031 μg/mL
SAU 29213; ATB PIP
  MIC ATB combined with Example: 0.125 µg/mL
SAU 29213; MIC of CIP
  MIC ATB combined with Example compound: <=0.031 μg/mL
SAU 29213; MIC of CLI
  MIC ATB combined with Example compound: <0.0010 µg/mL
SAU 29213; MIC of CPO
  MIC ATB combined with Example compound: <0.031 µg/mL
SAU 29213; MIC of DAP
  MIC ATB combined with Example compound: <=0.0020 μg/mL
SAU 29213; MIC of ERY
  MIC ATB combined with Example compound: <0.0020 µg/mL
SAU 29213; MIC of LZD
  MIC ATB combined with Example compound: <0.0078 µg/mL
SAU 29213; MIC of RIF
  MIC ATB combined with Example compound: 0.002 µg/mL
SAU 29213; MIC of SYN
  MIC ATB combined with Example compound: 0.125 µg/mL
SAU 29213; MIC of VAN
  MIC ATB combined with Example compound: <0.0039 µg/mL
SAU 29213; Staphylococcus aureus, substance alone, SAU 29213 (MSSA 29213), read-out: MIC
  MIC: 8 µg/mL
SPN 49619; ATB ATM
  MIC ATB combined with Example: >32 µg/mL
SPN 49619; ATB FEP
  MIC ATB combined with Example: <=0.031 μg/mL
SPN 49619; ATB FOS
  MIC ATB combined with Example: 8 µg/mL
SPN 49619; ATB MEM
  MIC ATB combined with Example: <=0.031 μg/mL
SPN 49619; ATB PIP
  MIC ATB combined with Example: 0.5 µg/mL
SPN 49619; MIC of CIP
  MIC ATB combined with Example compound: <0.031 µg/mL
SPN 49619; MIC of CLI
  MIC ATB combined with Example compound: 0.0078 µg/mL
SPN 49619; MIC of CPO
  MIC ATB combined with Example compound: <=0.031 μg/mL
SPN 49619; MIC of DAP
  MIC ATB combined with Example compound: 0.125 µg/mL
SPN 49619; MIC of ERY
  MIC ATB combined with Example compound: 0.0078 µg/mL
SPN 49619; MIC of LZD
  MIC ATB combined with Example compound: 0.25 µg/mL
SPN 49619; MIC of RIF
  MIC ATB combined with Example compound: 0.002 µg/mL
SPN 49619; MIC of SYN
  MIC ATB combined with Example compound: 0.25 µg/mL
SPN 49619; MIC of VAN
  MIC ATB combined with Example compound: 0.031 µg/mL
SPN 49619; Streptococcus pneumoniae, substance alone, read-out: MIC
  MIC: 16 µg/mL
ABA 107292
  MIC: > 32 µg/mL
ABA 19606
  MIC: > 32 µg/mL
